Measured values taken from ChEMBL document CHEMBL5113545, “Selective Cyclin-Dependent Kinase Inhibitors and Their Application in Cancer Therapy” (ACS Med Chem Lett, 2022).
pIC50: −log10 of the molar value.

Target: Cyclin-dependent kinase 2/cyclin E1 (Homo sapiens, UniProt P24941)
Assay: Inhibition of human full length recombinant C-terminal 6His-tagged CDK2/N-terminal GST-tagged cyclin E1 expressed in baculovirus-infected Sf21 cells using 5-FAM- QSPKKG peptide as substrate preincubated with enzyme and ATP for 30 mins followed by substrate addition and measured after 20 hrs by fluorescence- based microfluidic mobility shift assay

Compound | pIC50
Cc1cc(CC(=O)Nc2cc([C@H]3CC[C@@H](OC(=O)N4CCC4(C)C)C3)[nH]n2)on1 | ≥ 7.00
Cc1ncc(CC(=O)Nc2cc([C@H]3CC[C@@H](OC(=O)NC(C)C)C3)[nH]n2)s1 | ≥ 7.00
COc1cc(CC(=O)Nc2cc([C@H]3CC[C@@H](OC(=O)NC(C)C)C3)[nH]n2)ccn1 | ≥ 7.00
CC(C)NC(=O)O[C@H]1CC[C@@H](c2cc(NC(=O)c3ccnn3C)n[nH]2)C1 | ≥ 7.00
CC(C)NC(=O)O[C@@H]1CC[C@H](c2cc(NC(=O)Cc3ccccc3S(C)(=O)=O)n[nH]2)C1 | ≥ 7.00
CC1(NC(=O)O[C@@H]2CC[C@H](c3cc(NC(=O)Cc4ccccc4)n[nH]3)C2)CC1 | ≥ 7.00
CC(C)NC(=O)O[C@@H]1CC[C@H](c2cc(NC(=O)c3ccnc4ncsc34)n[nH]2)C1 | ≥ 7.00
CC(C)NC(=O)O[C@@H]1CC[C@H](c2cc(NC(=O)c3ccnn3C)n[nH]2)C1 | ≥ 7.00
Cc1cc(CC(=O)Nc2cc([C@H]3CCC[C@@H](OC(=O)NC4(C)CC4)CC3)[nH]n2)on1 | ≥ 7.00
COCc1cc(C(=O)Nc2cc([C@H]3CC[C@@H](OC(=O)N(C)C(C)C)C3)[nH]n2)n(C)n1 | ≥ 7.00
CC1(NC(=O)O[C@H]2CC[C@@H](c3cc(NC(=O)Cc4ccccc4)n[nH]3)C2)CC1 | ≥ 7.00
CC(C)NC(=O)O[C@@H]1CC[C@H](c2cc(NC(=O)Cc3ccccc3)n[nH]2)C1 | ≥ 7.00
